Experimental data: PubChem BioAssay (NCI)
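48-hour exposure; five concentrations; linearly interpolated endpoints. GI50: concentration for 50% inhibition of growth. Definition used: TGI = concentration required for complete inhibition of growth.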

Columns and labels:
Experiment in all cases: NCI tumour cell line growth inhibition, 48 h
786-0 renal = system: 786-0 renal
A498 renal = system: A498 renal
A549 NSCLC = system: A549 NSCLC
ACHN renal = system: ACHN renal
BT-549 breast = system: BT-549 breast
CCRF-CEM leukemia = system: CCRF-CEM leukemia
COLO 205 colon = system: COLO 205 colon
DU-145 prostate = system: DU-145 prostate
EKVX NSCLC = system: EKVX NSCLC
HCC-2998 colon = system: HCC-2998 colon
HCT-116 colon = system: HCT-116 colon
HCT-15 colon = system: HCT-15 colon
HL-60(TB) leukemia = system: HL-60(TB) leukemia
HOP-62 NSCLC = system: HOP-62 NSCLC
HOP-92 NSCLC = system: HOP-92 NSCLC
HS 578T breast = system: HS 578T breast
HT29 colon = system: HT29 colon
IGROV1 ovarian = system: IGROV1 ovarian
K-562 leukemia = system: K-562 leukemia
KM12 colon = system: KM12 colon
LOX IMVI melanoma = system: LOX IMVI melanoma
M14 melanoma = system: M14 melanoma
MALME-3M melanoma = system: MALME-3M melanoma
MCF7 breast = system: MCF7 breast
MDA-MB-231 breast = system: MDA-MB-231 breast
MDA-MB-435 = system: MDA-MB-435
MOLT-4 leukemia = system: MOLT-4 leukemia
NCI-H226 lung = system: NCI-H226 lung
NCI-H23 lung = system: NCI-H23 lung
NCI-H460 lung = system: NCI-H460 lung
NCI-H522 lung = system: NCI-H522 lung
NCI/ADR-RES ovarian = system: NCI/ADR-RES ovarian
OVCAR-3 ovarian = system: OVCAR-3 ovarian
OVCAR-4 ovarian = system: OVCAR-4 ovarian
OVCAR-5 ovarian = system: OVCAR-5 ovarian
OVCAR-8 ovarian = system: OVCAR-8 ovarian
PC-3 prostate = system: PC-3 prostate
RPMI-8226 leukemia = system: RPMI-8226 leukemia
RXF 393 renal = system: RXF 393 renal
SF-268 CNS = system: SF-268 CNS
SF-295 CNS = system: SF-295 CNS
SF-539 CNS = system: SF-539 CNS
SK-MEL-2 melanoma = system: SK-MEL-2 melanoma
SK-MEL-28 melanoma = system: SK-MEL-28 melanoma
SK-MEL-5 melanoma = system: SK-MEL-5 melanoma
SK-OV-3 ovarian = system: SK-OV-3 ovarian
SN12C renal = system: SN12C renal
SNB-19 CNS = system: SNB-19 CNS
SNB-75 CNS = system: SNB-75 CNS
SR leukemia = system: SR leukemia
SW-620 colon = system: SW-620 colon
T-47D breast = system: T-47D breast
U251 CNS = system: U251 CNS
UACC-257 melanoma = system: UACC-257 melanoma
UACC-62 melanoma = system: UACC-62 melanoma
UO-31 renal = system: UO-31 renal

## C#Cc1cccc(Nc2ncnc3ccc(-c4cncc(NS(C)(=O)=O)c4)cc23)c1
786-0 renal
  GI50: 1.77 µM
  TGI: 6.74 µM
A498 renal
  GI50: 0.372 µM
  TGI: 2.04 µM
A549 NSCLC
  GI50: 3.63 µM
  TGI: 14.9 µM
ACHN renal
  GI50: 0.979 µM
  TGI: 49.6 µM
BT-549 breast
  GI50: 1.07 µM
  TGI: 4.55 µM
CCRF-CEM leukemia
  GI50: 0.82 µM
  TGI: 7.31 µM
COLO 205 colon
  GI50: 1.68 µM
  TGI: 3.94 µM
DU-145 prostate
  GI50: 2.07 µM
  TGI: 12.8 µM
EKVX NSCLC
  GI50: 1.12 µM
  TGI: 4.6 µM
HCC-2998 colon
  GI50: 2.67 µM
  TGI: 11.8 µM
HCT-116 colon
  GI50: 1.45 µM
  TGI: 3.29 µM
HCT-15 colon
  GI50: 3.47 µM
  TGI: 16.7 µM
HL-60(TB) leukemia
  GI50: 1.87 µM
  TGI: 6.83 µM
HOP-62 NSCLC
  GI50: 1.84 µM
  TGI: 14.1 µM
HOP-92 NSCLC
  GI50: 0.447 µM
  TGI: 3.73 µM
HS 578T breast
  GI50: 1.1 µM
  TGI: 4.65 µM
HT29 colon
  GI50: 1.86 µM
  TGI: 6.28 µM
IGROV1 ovarian
  GI50: 0.309 µM
  TGI: 1.68 µM
K-562 leukemia
  GI50: 3.79 µM
  TGI: 19.5 µM
KM12 colon
  GI50: 2.33 µM
  TGI: 6.52 µM
LOX IMVI melanoma
  GI50: 1.26 µM
  TGI: 2.86 µM
M14 melanoma
  GI50: 2.33 µM
  TGI: 11.2 µM
MALME-3M melanoma
  GI50: 1.11 µM
  TGI: 9.13 µM
MCF7 breast
  GI50: 1.5 µM
  TGI: 8.71 µM
MDA-MB-231 breast
  GI50: 2.2 µM
  TGI: 8.06 µM
MDA-MB-435
  GI50: 2.94 µM
  TGI: 13.7 µM
MOLT-4 leukemia
  GI50: 1.41 µM
  TGI: 4.45 µM
NCI-H226 lung
  GI50: 2.99 µM
  TGI: 16.8 µM
NCI-H23 lung
  GI50: 2.36 µM
  TGI: 10.8 µM
NCI-H460 lung
  GI50: 3.46 µM
  TGI: 13.6 µM
NCI-H522 lung
  GI50: 1.06 µM
  TGI: 3.28 µM
NCI/ADR-RES ovarian
  GI50: 21.7 µM
  TGI: > 100 µM
OVCAR-3 ovarian
  GI50: 1.15 µM
  TGI: 3.25 µM
OVCAR-4 ovarian
  GI50: 3.59 µM
  TGI: 75.9 µM
OVCAR-5 ovarian
  GI50: 1.07 µM
  TGI: 16.5 µM
OVCAR-8 ovarian
  GI50: 3.7 µM
  TGI: 28.1 µM
PC-3 prostate
  GI50: 2.21 µM
  TGI: 9.95 µM
RPMI-8226 leukemia
  GI50: 2.18 µM
  TGI: 4.93 µM
RXF 393 renal
  GI50: 1.68 µM
  TGI: 4.84 µM
SF-268 CNS
  GI50: 1.92 µM
  TGI: 11.5 µM
SF-295 CNS
  GI50: 2.47 µM
  TGI: 10.5 µM
SF-539 CNS
  GI50: 1.46 µM
  TGI: 4.96 µM
SK-MEL-2 melanoma
  GI50: 0.845 µM
  TGI: 2.2 µM
SK-MEL-28 melanoma
  GI50: 1.47 µM
  TGI: 14.1 µM
SK-MEL-5 melanoma
  GI50: 1.63 µM
  TGI: 3.06 µM
SK-OV-3 ovarian
  GI50: 1.89 µM
  TGI: 5.71 µM
SN12C renal
  GI50: 2.51 µM
  TGI: 19.7 µM
SNB-19 CNS
  GI50: 1.98 µM
  TGI: 16.2 µM
SNB-75 CNS
  GI50: 0.524 µM
  TGI: 5.09 µM
SR leukemia
  GI50: 1.37 µM
  TGI: 5.74 µM
SW-620 colon
  GI50: 2.36 µM
  TGI: 6.31 µM
T-47D breast
  GI50: 0.209 µM
  TGI: 2.77 µM
U251 CNS
  GI50: 2.5 µM
  TGI: 10.3 µM
UACC-257 melanoma
  GI50: 3.7 µM
  TGI: 16.2 µM
UACC-62 melanoma
  GI50: 1.66 µM
  TGI: 5.69 µM
UO-31 renal
  GI50: 1.53 µM
  TGI: 14.5 µM
